From patent US20150224170A1 (priority 2010, published 2015)

Columns and labels:
[1] = test system: SINV-infected differentiated CSM14.1 cells; assay type: cell-based, rat; settings: 10 uM
[2] = test system: Sindbis virus (SINV, TE strain); assay type: cell-based
NFAT3 = assay type: cell-based, rat; settings: 10 uM

CCCOc1ccccc1-c1nc2nn[nH]c2c(=O)[nH]1 [zaprinast]
viability / survival of infected cells [1]: did not detectably affect cell survival | viral titers / viral replication versus untreated SINV infection (in words) [2]: tended to slightly increase viral titers at most time points | cytoplasmic NFAT3 (Western blot) (NFAT3): remained constant at all timepoints | effect on NFAT3 activation (NFAT3): no effect | nuclear NFAT3 (Western blot) (NFAT3): remained constant at all timepoints
